Counter-ions that a name gives are not always drawn. Activity calls are given as the source filed them. The calls are words filed in the database; no cut-off is given here.
Assays:
MCF7 = assay: Antiproliferative activity against human MCF7 cells assessed as cell viability incubated for 48 hrs by MTT assay; format: functional, cell-based; conditions: MCF7, 48 h
A549 [1] = assay: Induction of apoptosis in human A549 cells assessed as cell viability pretreated with autophagy inhibitor 3-methyladenine for 24 hrs followed by incubation with compound at 100 nM and measured after 48 hrs by CCK-8 assay; format: functional, cell-based
HeLa = assay: Antiproliferative activity against human HeLa cells assessed as cell viability incubated for 48 hrs by MTT assay; format: functional, cell-based
A2780 [2] = assay: Antiproliferative activity against human A2780 cells assessed as cell viability incubated for 48 hrs by MTT assay; format: functional, cell-based; conditions: A2780, 48 h
HCT-8 [3] = assay: Antiproliferative activity against human HCT-8 cells assessed as cell viability incubated for 48 hrs by MTT assay; format: functional, cell-based; conditions: HCT-8, 48 h
A549 [4] = assay: Induction of apoptosis in human A549 cells assessed as cell viability pretreated with caspase inhibitor Z-VAD-FMK for 24 hrs followed by incubation with compound at 100 nM and measured after 48 hrs by CCK-8 assay; format: functional, cell-based
A549 [5] = assay: Induction of apoptosis in human A549 cells assessed as cell viability pretreated with ferroptosis inhibitor ferrostatin-1 for 24 hrs followed by incubation with compound at 100 nM and measured after 48 hrs by CCK-8 assay; format: functional, cell-based
A549 [6] = assay: Induction of apoptosis in human A549 cells assessed as cell viability pretreated with ferroptosis inhibitor desferoxamine for 24 hrs followed by incubation with compound at 100 nM and measured after 48 hrs by CCK-8 assay; format: functional, cell-based
A549 [7] = assay: Induction of apoptosis in human A549 cells assessed as early apoptotic cells at 50 nM incubated for 24 hrs by annexin V-FITC/PI staining based flow cytometry analysis; format: functional, cell-based
A549 [8] = assay: Induction of apoptosis in human A549 cells assessed as cell viability pretreated with necroptosis inhibitor necrostatin-I for 24 hrs followed by incubation with compound at 100 nM and measured after 48 hrs by CCK-8 assay; format: functional, cell-based
A549 [9] = assay: Antiproliferative activity against human A549 cells assessed as cell viability incubated for 48 hrs by MTT assay; format: functional, cell-based; conditions: A549, 48 h
[10] = Resistance index, ratio of IC50 for antiproliferative activity against human vincristine-resistant HCT-8/VCR cells to IC50 for antiproliferative activity against HCT-8 cells; format: functional
HCT-8 [11] = assay: Antiproliferative activity against human vincristine-resistant HCT-8/VCR cells assessed as cell viability incubated for 48 hrs by MTT assay; format: functional, cell-based; conditions: HCT-8, 48 h
[12] = Resistance index, ratio of IC50 for antiproliferative activity against human paclitaxel-resistant A2780/TAX cells to IC50 for antiproliferative activity against human A2780 cells; format: functional
A549 [13] = assay: Resistance index, ratio of IC50 for antiproliferative activity against human adriamycin-resistant A549/ADR cells to IC50 for antiproliferative activity against human A549 cells; format: functional
A2780 [14] = assay: Antiproliferative activity against human paclitaxel-resistant A2780/TAX cells assessed as cell viability incubated for 48 hrs by MTT assay; format: functional, cell-based; conditions: A2780, 48 h
A549 [15] = assay: Antiproliferative activity against human adriamycin-resistant A549/ADR cells assessed as cell viability incubated for 48 hrs by MTT assay; format: functional, cell-based; conditions: A549, 48 h
A549 [16] = assay: Induction of cell death in human A549 cells assessed as vanished mitochondrial cristae at 200 nM for 12 hrs by TEM analysis; format: functional, cell-based
Tubulin [17] = assay: Inhibition of [3H]colchicine binding to tubulin (unknown origin) by competitive binding assay; format: protein-complex assay, Homo sapiens
A549 [18] = assay: Induction of apoptosis in human A549 cells assessed as cell rounding incubated for 24 hrs […]; format: functional, cell-based
A549 [19] = assay: Induction of cell death in human A549 cells assessed as increased mitochondrial membrane density at 200 nM for 12 hrs by TEM analysis; format: functional, cell-based
A549 [20] = assay: Induction of apoptosis in human A549 cells assessed as chromatin condensation incubated for 24 hrs by CCK-8 assay; format: functional, cell-based
A549 [21] = assay: Induction of apoptosis in human A549 cells assessed as nucleic fragmentation incubated for 24 hrs by CCK-8 assay; format: functional, cell-based
A549 [22] = assay: Induction of apoptosis in human A549 cells assessed as apoptotic body formation incubated for 24 hrs […]; format: functional, cell-based
Tubulin [23] = assay: Inhibition of tubulin polymerization (unknown origin) assessed as fluorescence intensity emission at 410 nm for 60 mins; format: protein-complex assay, Homo sapiens
A549 [24] = assay: Induction of apoptosis in human A549 cells assessed as cell viability pretreated with caspase inhibitor Z-VAD-FMK for 24 hrs followed by incubation with compound at 200 nM and measured after 48 hrs by CCK-8 assay; format: functional, cell-based
A549 [25] = assay: Induction of apoptosis in human A549 cells assessed as cell viability pretreated with necroptosis inhibitor necrostatin-I for 24 hrs followed by incubation with compound at 200 nM and measured after 48 hrs by CCK-8 assay; format: functional, cell-based
A549 [26] = assay: Induction of apoptosis in human A549 cells assessed as cell viability pretreated with autophagy inhibitor 3-methyladenine for 24 hrs followed by incubation with compound at 200 nM and measured after 48 hrs by CCK-8 assay; format: functional, cell-based
A549 [27] = assay: Induction of apoptosis in human A549 cells assessed as cell viability pretreated with ferroptosis inhibitor desferoxamine for 24 hrs followed by incubation with compound at 200 nM and measured after 48 hrs by CCK-8 assay; format: functional, cell-based
A549 [28] = assay: Induction of apoptosis in human A549 cells assessed as cell viability pretreated with ferroptosis inhibitor ferrostatin-1 for 24 hrs followed by incubation with compound at 200 nM and measured after 48 hrs by CCK-8 assay; format: functional, cell-based
A549 [29] = assay: Induction of ferroptosis in human A549 cells assessed as depletion of GSH levels at 10 uM upto 12 hrs; format: functional, cell-based
A549 [30] = assay: Induction of cell death in human A549 cells assessed as vanished mitochondrial cristae at 10 uM for 12 hrs by TEM analysis; format: functional, cell-based
A549 [31] = assay: In vivo antitumor activity against human A549 cells xenografted in athymic nude BALB/c mouse assessed as tumor volume at 10 mg/kg measured after 30 days (reference value: 1503.3 mm^3); format: functional; conditions: time 30 day
A549 [32] = assay: In vivo antitumor activity against human A549 cells xenografted in athymic nude BALB/c mouse assessed as tumor growth inhibition at 10 mg/kg measured after 30 days relative to control; format: functional; conditions: A549, 720 h, time 30 day, read-out: TGI
A549 [33] = assay: In vivo antitumor activity against human A549 cells xenografted in athymic nude BALB/c mouse assessed as tumor weight at 10 mg/kg measured after 30 days (reference value: 1 gram); format: functional; conditions: time 30 day
A549 [34] = assay: Induction of cell death in human A549 cells assessed as increased mitochondrial membrane density at 10 uM for 12 hrs by TEM analysis; format: functional, cell-based
A549 [35] = assay: Induction of lipid […] accumulation in human A549 cells at 100 nM incubated for 24 hrs by C11-BODIPY-581/591 staining based flow cytometry analysis; format: functional, cell-based

| SMILES | IC50 (MCF7) | Activity (A549 [1]) | IC50 (HeLa) | IC50 (A2780 [2]) | IC50 (HCT-8 [3]) | Activity (A549 [4]) | Activity (A549 [5]) | Activity (A549 [6]) | Activity (A549 [8]) | IC50 (A549 [9]) | IC50 (HCT-8 [11]) | IC50 (A549 [15]) | other results |
| --- | --- | --- | --- | --- | --- | --- | --- | --- | --- | --- | --- | --- | --- |
| COc1ccc(C(=O)c2cc(OC)c(OC)c(OC)c2)c(NC(=O)CO)c1 | 230 nM | Active | 70 nM | 100 nM | 120 nM | Active | Active | Active | Active | 70 nM |  |  | Activity (A549 [7]): Active |
| CC[C@]1(O)C[C@H]2CN(CCc3c([nH]c4ccccc34)[C@@](C(=O)OC)(c3cc4c(cc3OC)N(C=O)[C@H]3[C@@](O)(C(=O)OC)[C@H](OC(C)=O)[C@]5(CC)C=CCN6CC[C@]43[C@@H]65)C2)C1 [VINCRISTINE] |  |  |  | 30 nM | 350 nM |  |  |  |  | 60 nM | 7860 nM | 560 nM | Ratio IC50 [10]: 22.46; Ratio IC50 [12]: 5.67; Ratio IC50 (A549 [13]): 9.33; IC50 (A2780 [14]): 170 nM |
| CC(=O)O[C@H]1C(=O)[C@@]2(C)[C@H]([C@H](OC(=O)c3ccccc3)[C@]3(O)C[C@H](OC(=O)[C@H](O)[C@@H](NC(=O)c4ccccc4)c4ccccc4)C(C)=C1C3(C)C)[C@]1(OC(C)=O)CO[C@@H]1C[C@@H]2O [PACLITAXEL] |  |  |  |  | 20 nM |  |  |  |  | 30 nM | 130 nM | 70 nM |  |
| COc1ccc(C(=O)c2cc(OC)c(OC)c(OC)c2)cc1O [PHENSTATIN] | 960 nM |  | 220 nM | 110 nM | 360 nM |  |  |  |  |  |  |  | Activity (A549 [16]): Active; IC50 (Tubulin [17]): 3030 nM; Activity (A549 [18]): Active; Activity (A549 [19]): Active; Activity (A549 [20]): Active; Activity (A549 [21]): Active; Activity (A549 [22]): Active; IC50 (Tubulin [23]): 2940 nM |
| COc1ccc(C(=O)c2ccc(OC)c3c2OC(C)(C)C=C3)c(NC(=O)CO)c1 | 320 nM | Active | 100 nM | 100 nM | 230 nM | Active | Active | Active | Active | 80 nM |  |  | Activity (A549 [7]): Active |
| C=C(c1cc(OC)c(OC)c(OC)c1)c1ccc(OC)c(O)c1NC(=O)COC | 560 nM |  | 330 nM | 450 nM | 280 nM |  |  |  |  | 190 nM |  |  | Activity (A549 [24]): Active; Activity (A549 [25]): Active; Activity (A549 [26]): Active; Activity (A549 [27]): Active; Activity (A549 [28]): Active |
| COc1cccc2c1C(=O)c1c(O)c3c(c(O)c1C2=O)C[C@@](O)(C(=O)CO)C[C@@H]3O[C@H]1C[C@H](N)[C@H](O)[C@H](C)O1 [DOXORUBICIN HYDROCHLORIDE] |  |  |  | 2030 nM | 3980 nM |  |  |  |  |  | 21600 nM | 12500 nM | IC50 (A2780 [14]): 2690 nM |
| CCOc1ccccc1-n1c(C(C)N2CCN(C(=O)COc3ccc(Cl)cc3)CC2)nc2ccccc2c1=O (centres undefined) [ERASTIN] |  |  |  |  |  |  |  |  |  |  |  |  | Activity (A549 [29]): Active; Activity (A549 [30]): Active; Activity (A549 [31]): 1339.4 mm3; inhibition in vivo at 10 mg/kg (A549 [32]): 10.9%; Activity (A549 [33]): 0.89 g; Activity (A549 [34]): Active |
| C=C(c1ccc(OC)cc1NC(=O)CO)c1ccc(OC)c2c1OC(C)(C)C=C2 | 100 nM | Active | 40 nM | 40 nM | 130 nM | Active | Active | Active | Active | 40 nM |  |  | Activity (A549 [35]): Active |

Reference: ChEMBL document CHEMBL5154799, “Discovery of a Novel Stilbene Derivative as a Microtubule Targeting Agent Capable of Inducing Cell Ferroptosis” (J Med Chem, 2022)
